Experimental findings from PubChem BioAssay (NCI) are described below.

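Method: 48-hour compound exposure of cells in 96-well plates, five concentrations, linear interpolation of endpoints. Definition used: TGI = concentration required for complete inhibition of growth.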

What all share (assay): DTP human tumour cell line panel, 48 h
In experiment [1] the test system is A498 renal.
The subject of experiment [2] is ACHN renal.
The subject of experiment [3] is CCRF-CEM leukemia.
Experiment [4] has as its system HCT-15 colon.
The test system of experiment [5] is IGROV1 ovarian.
Experiment [6] deals with LOX IMVI melanoma.
Experiment [7] has as its system MCF7 breast.
For experiment [8], the system named is MOLT-4 leukemia.
Experiment [9] relates to SF-295 CNS.
The subject of experiment [10] is SK-MEL-28 melanoma.
The subject of experiment [11] is SK-OV-3 ovarian.
In experiment [12] the test system is SW-620 colon.
The test system of experiment [13] is U251 CNS.
Experiment [14] relates to UACC-257 melanoma.
Experiment [15] deals with UO-31 renal.
For experiment [16], the system named is CAKI-1 renal.
The subject of experiment [17] is NCI-H23 lung.
In experiment [18] the test system is OVCAR-4 ovarian.
In experiment [19] the test system is T-47D breast.
For experiment [20], the system named is HOP-62 NSCLC.

In the case of `C/C1=C\[C@@H](C)C[C@@H](C)OC(=O)[C@@H](C)NC(=O)[C@H](Cc2ccc(O)c(Br)c2)N(C)C(=O)CNC(=O)[C@H](C)C1`, the TGI (as a rule, the concentration giving total growth inhibition) in [1] was under 0.021 µM; in experiment [2] it was 0.249 µM; in experiment [3], under 0.01 µM; in [4], 44.2 µM; in experiment [5], 0.033 µM; in [6], under 0.01 µM. Moreover, the TGI in experiment [7] is over 100 µM; in experiment [8] it was over 64.1 µM; in experiment [9], 5.55 µM; in [10], 17.3 µM; in experiment [11], 5.26 µM; in experiment [12], over 100 µM. For the same compound, the TGI was determined as 5.34 µM in experiment [13], 27.2 µM in experiment [14] and 0.127 µM in experiment [15].
As to `O=C(CSc1nc2ccc(I)cc2c(=O)n1Cc1ccccc1)NNC(=S)Nc1ccccc1`, the TGI in experiment [1], in [2], in [16], in [3], in experiment [4] and in experiment [6] was over 100 µM each time. Besides, the TGI in experiment [7], in experiment [8], in experiment [17], in experiment [18], in experiment [9] and in [10] was over 100 µM throughout. The TGI was over 100 µM in experiment [11]; over 100 µM in experiment [12]; over 100 µM in experiment [19]; over 100 µM in experiment [13]; 98.7 µM in experiment [14].
Consider `Nc1nncc2n[nH]nc12`, for which the TGI in experiment [1], in [2], in experiment [16], in experiment [3], in [4] and in [20] was over 100 µM each time. The TGI is over 100 µM in [5]; over 100 µM in experiment [7]; 91 µM in experiment [8]; over 100 µM in experiment [17]; over 100 µM in experiment [9]; over 100 µM in experiment [10]. In addition, the TGI in [12], in [19], in experiment [13], in experiment [14] and in experiment [15] was over 100 µM in each case.
Regarding `CCSC1=N/C(=C\c2ccco2)C(Nc2ccc(C)cc2)=N1`, the TGI in [1], in experiment [2], in experiment [3], in experiment [4], in experiment [20] and in experiment [5] was over 100 µM throughout. Besides, the TGI in experiment [6], in experiment [7], in experiment [8], in [17], in experiment [9] and in [10] was over 100 µM throughout. Besides, the TGI in experiment [11], in experiment [12], in experiment [13] and in experiment [15] was over 100 µM throughout.
Turning to `CN1/C(=C\N=O)C(C)(C)N(O)C1(C)C`, the TGI in experiment [2], in experiment [16], in experiment [3], in [4], in experiment [20] and in experiment [5] was over 100 µM throughout. Further, the TGI in experiment [6], in experiment [7], in experiment [8], in experiment [17], in experiment [18] and in [9] was over 100 µM throughout. Further, the TGI in experiment [10], in experiment [11], in [12], in experiment [19], in experiment [13] and in experiment [14] was over 100 µM throughout. In experiment [15], this compound displayed a TGI of over 100 µM.
On to `C=CC(=C)CCC(Br)C(C)(C)Br` (configuration not stated), for which the TGI is over 100 µM in experiment [2]; 50.8 µM in experiment [3]; over 100 µM in [4]; over 100 µM in experiment [20]; over 100 µM in experiment [5]; over 100 µM in experiment [7]. The TGI was 45.7 µM in experiment [8]; over 100 µM in experiment [17]; over 100 µM in [18]; over 100 µM in [9]; over 100 µM in experiment [10]; over 100 µM in [11]. Also, the TGI in experiment [12], in experiment [19], in experiment [13], in experiment [14] and in experiment [15] was over 100 µM in each case.
As to `O=P(O)(O)c1ccc2c(c1)OCCOCCOCCOCCO2`, the TGI in experiment [1], in [2], in experiment [3], in experiment [4], in experiment [20] and in experiment [5] was over 100 µM throughout. For the same compound, the TGI in experiment [6], in [7], in experiment [8], in [17], in experiment [9] and in experiment [10] was over 100 µM each time. Moreover, the TGI in experiment [11], in experiment [12], in experiment [19], in [14] and in experiment [15] was over 100 µM in each case.
Take `Cc1nc(-c2cccnc2)sc1C(=O)CC(=O)C(=O)Nc1cccc(NC(=O)C(=O)CC(=O)c2sc(-c3cccnc3)nc2C)n1`: the TGI in [1], in experiment [2], in experiment [16], in [3], in experiment [4] and in [5] was over 100 µM throughout. Also, the TGI in experiment [6], in experiment [7], in experiment [8], in experiment [17], in experiment [18] and in experiment [9] was over 100 µM each time. In addition, the TGI in [10], in experiment [11], in [12], in experiment [19], in [13] and in experiment [14] was over 100 µM each time. In experiment [15], the TGI is over 100 µM.
